Assay results from US20250289785A1, “INDOLE DERIVATIVE, METHOD FOR PREPARING SAME, AND USE THEREOF” (MITOIMMUNE THERAPEUTICS INC., priority 2021, published 2025).
Like-named read-outs stand apart in the source and are kept apart here.

How the values were obtained:
NIH/3T3 cells = assay: Cell death protective effect in fibroblasts against Erastin, glutamate and RSL3 (LDH); format: cell-based, mouse; conditions: 24 h
Experimental: In order to identify the protective effect on fibroblasts, NIH/3T3 cells were divided into 96-well plates by 8×10^3 and cultured for 18 to 24 hours. The compounds of Examples were diluted to final concentrations of 0.1 and 1 μM, treated in each well, and incubated for 15 to 20 minutes. Erastin, glutamate, and RSL3 were treated to have final concentrations of 3 μM, 30 mM, and 3 μM, respectively, and cultured for 24 hours. In order to identify the protective effect of each compound, the degree of LDH extracellular secretion was measured using cytotoxicity LDH assay kit [Dojindo; CK12]. Briefly, at the time when the treatment of the cells with Erastin, glutamate, and RSL3 for 24 hours is completed, the supernatants containing the cells are taken by 70 μL and transferred to a new 96-well plate. The assay buffer included in the kit is added in an amount of 70 μL/well (the same amount as the sample) thereto, and then the plate is wrapped with a foil and the reaction is performed at room temperature for 15 minutes.

MLE-12 cells = assay: Cell death protective effect in lung epithelial cells against RSL3 (LDH); format: cell-based, rat; conditions: MLE-12, RSL3, 1 μM, 24 h
Experimental: In order to identify the protective effect on lung epithelial cells, MLE-12 cells were divided into 96-well plates by 5×10^3 and cultured for 18 to 24 hours. The compounds of Examples were diluted to final concentrations of 0.03 and 0. μM, treated in each well, and incubated for 20 minutes. RSL3 was treated to have final concentrations of 1. μM, respectively, and cultured for 24 hours. In order to identify the protective effect of each compound, the degree of LDH extracellular secretion was measured using cytotoxicity LDH assay kit [Dojindo; CK12]. Briefly, at the time when the treatment of the cells with RSL3 for 24 hours is completed, the supernatants containing the cells are taken by 70 μL and transferred to a new 96-well plate. The assay buffer included in the kit is added in an amount of 70 μL/well (the same amount as the sample) thereto, and then the plate is wrapped with a foil and the reaction is performed at room temperature for 15 minutes.

H9C2 cells = assay: Maintenance of intracellular calcium level in heart cells treated with t-BHP (FLIPR Calcium 6); format: cell-based, rat; conditions: H9C2, t-BHP 150 μM
Experimental: To examine the maintenance effect on calcium level in heart cells, H9C2 cells were divided into a 96-well plate by 1.5×10^4 cells/well and cultured for 24 hours. To measure intracellular calcium level, a FLIPR Calcium 6 assay kit (Molecular devices; #R8190) was used. Following the experimental method provided by the manufacturer, cells were treated with probenecid and calcium-sensitive dye for 1.75 hours, and then the cells were treated with the compound of Example 2 for 0.25 hours (the final concentration of the compound was 0.02 or 0.01 μM). And the cells were treated with t-BHP to a final concentration of 150 μM, then intracellular calcium level was measured every 30 seconds in real time.
FIG. 1 is a graph regarding the regulatory effect of the compound of Example 2 on calcium level under t-BHP treatment. The ΔF/F(Max−Min) value on the vertical axis is the difference between the maximum and minimum fluorescence intensity values of the calcium-sensitive dye after treatment with t-BHP (150 μM), and this value increases as intracellular calcium level increases.

[1] = Plasma and brain concentration after oral administration to ICR mice (HPLC-MS/MS); format: in vivo; conditions: 10 mg/kg; for concentration at 2 h / concentration at 24 h / AUC(0-t): ICR, mouse, po
Experimental: […] parameters can be represented as maximum concentration in plasma (Cmax), time taken until maximum concentration in plasma (Tmax), area under the plasma concentration-time curve (AUClast and AUCinf), and half-life (t1/2), and the like.
The compound of example 2 was orally administered to ICR mice at a dose of 10 mg/kg, and drug concentration in mouse plasma was measured using HPLC-MS/MS spectroscopy at 0.5, 1, 2, 4, 8 and 24 hours. The mouse brains were removed at 2 or 24 hours, and drug concentration in the brain was measured using HPLC-MS/MS spectroscopy. The area under the plasma concentration v. time curve (AUCinf) was measured to be […], and at 2 hours after administration drug concentration in plasma was 546 ng/mL and brain drug concentration was measured at 1043 ng/mL. […] Further, at 24 hours after administration, for Embodiment 2, drug concentration in plasma was measured to be 4.7 ng/mL and drug concentration in the brain was measured at 5.7 ng/mL. With the brain-plasma drug concentration ratio at 1.23, drug exposure in the brain was still high.
The Comparative Example compound was orally administered to ICR mice at a dose of 10 mg/kg, and drug concentration in mouse plasma was measured using HPLC-MS/MS spectroscopy at 0.5, 1, 2, 4, 8 and 24 hours. The mouse brains were removed at 2 or 24 hours, and drug concentration in the brain was measured using HPLC-MS/MS spectroscopy.

[2] = NIH/3T3, Erastin, 3 μM, compound 0.1 μM
[3] = NIH/3T3, Erastin, 3 μM, compound 1.0 μM
[4] = NIH/3T3, Glutamate, 30 mM, compound 0.1 μM
[5] = NIH/3T3, Glutamate, 30 mM, compound 1.0 μM
[6] = NIH/3T3, RSL3, 3 μM, compound 0.1 μM
[7] = NIH/3T3, RSL3, 3 μM, compound 1.0 μM
[8] = ICR mouse, 2 hours after administration

| SMILES | inhibition (%) (NIH/3T3 cells; [2]) | inhibition (%) (NIH/3T3 cells; [3]) | inhibition (%) (NIH/3T3 cells; [4]) | inhibition (%) (NIH/3T3 cells; [5]) | inhibition (%) (NIH/3T3 cells; [6]) | inhibition (%) (NIH/3T3 cells; [7]) | inhibition (%) (MLE-12 cells; compound 0.03 μM) | inhibition (%) (MLE-12 cells; compound 0.3 μM) | other results |
| --- | --- | --- | --- | --- | --- | --- | --- | --- | --- |
| COCc1cc(NC2CCOCC2)c2[nH]c(-c3ccccc3)cc2c1 [Example 1, 5-(methoxymethyl)-2-phenyl-N-tetrahydropyran-4-yl-1H-indol-7-amine] | 99% | 99% | 98% | 97% | 98% | 99% | 88% | 100% | – |
| COCc1cc(NC2CCCC2)c2[nH]c(-c3ccccc3)cc2c1 [Example 2, N-cyclopentyl-5-(methoxymethyl)-2-phenyl-1H-indol-7-amine] | 99% | 100% | 98% | 99% | 100% | 100% | 84% | 9% | intracellular calcium level, ΔF/F(Max−Min) (H9C2 cells; compound 0.01 μM): significantly decreased; intracellular calcium level, ΔF/F(Max−Min) (H9C2 cells; compound 0.02 μM): within normal range; brain drug concentration [1, 8]: 1043.2 ng/mL; drug concentration in plasma [1, 8]: 546.1 ng/mL; AUClast, Brain ([1]; ICR mouse, from the 2 and 24 hr samples): 12581.1 ng·h/g; AUC(0-inf) ([1]; ICR mouse, plasma, read-out: area under the plasma concentration v. time curve (AUCinf)): 4960 ng·h/mL; concentration at 2 h ([1]; brain, 2 hours after administration, read-out: brain drug concentration): 1040 ng/mL; concentration at 24 h ([1]; brain, 24 hours after administration, read-out: drug concentration in the brain): 5.7 ng/mL; concentration at 2 h ([1]; plasma, 2 hours after administration, read-out: drug concentration in plasma): 546 ng/mL; concentration at 24 h ([1]; plasma, 24 hours after administration, read-out: drug concentration in plasma): 4.7 ng/mL; AUC(0-t) ([1]; plasma, from the 2 and 24 hr samples, read-out: AUClast, Plasma): 6600 ng·h/mL; AUC(0-t) ([1]; plasma, plasma, read-out: 0.5~24 hr AUClast): 4940 ng·h/mL; AUC(0-t) ([1]; plasma, plasma, read-out: area under the plasma concentration v. time curve (AUClast)): 4940 ng·h/mL; Kp at 2 h ([1]; brain/plasma, ICR mouse, 2 hours after administration, read-out: brain-plasma drug concentration ratio (B/P ratio)): 1.91; Kp at 24 h ([1]; brain/plasma, ICR mouse, 24 hours after administration, read-out: brain-plasma drug concentration ratio (B/P ratio)): 1.23; Kp ([1]; brain/plasma, ICR mouse, read-out: AUClast B/P ratio): 1.9 |
| COCc1cc(NC2CC[S+]([O-])CC2)c2[nH]c(-c3ccccc3)cc2c1 (centres unmarked) [Example 14, 5-(methoxymethyl)-N-(1-oxothian-4-yl)-2-phenyl-1H-indol-7-amine] | 38% | 100% | 97% | 96% | 100% | 100% | 50% | 100% | – |
| CCOCc1cc(NC2CCCC2)c2[nH]c(-c3ccccc3)cc2c1 [Example 19, N-cyclopentyl-5-(ethoxymethyl)-2-phenyl-1H-indol-7-amine] | 100% | 100% | 95% | 97% | 100% | 100% | 93% | 100% | – |
| CCOCc1cc(NC2CCOCC2)c2c(c1)c(COC)c(-c1ccccc1)n2C [Example 29, 5-(ethoxymethyl)-3-(methoxymethyl)-1-methyl-2-phenyl-N-(tetrahydro-2H-pyran-4-yl)-1H-indol-7-amine] | 0% | 99% | 98% | 97% | 100% | 100% | 0% | 95% | – |
| COCCc1cc(NC2CCOCC2)c2[nH]c(-c3ccccc3)cc2c1 [Example 41, 5-(2-methoxyethyl)-2-phenyl-N-(tetrahydro-2H-pyran-4-yl)-1H-indol-7-amine] | 0% | 0% | 99% | 98% | 100% | 100% | 95% | 97% | – |
| CCOCc1cc(NC2CCOCC2)c2[nH]c(-c3ccccc3)c(-c3ncc[nH]3)c2c1 [Example 46, 5-(ethoxymethyl)-3-(1H-imidazol-2-yl)-2-phenyl-N-(tetrahydro-2H-pyran-4-yl)-1H-indole-7-amine] | 102% | 99% | 0% | 96% | 0% | 100% | 0% | 7% | – |
| CCOC(=O)c1ccc(NC2CCCCC2)c(N)c1 [Ferrostatin-1, reference compound] | 0% | 96% | 98% | 98% | 100% | 100% | 25% | 98% | – |
